# Source: patent US8563717B2, “Adenine derivatives” (GlaxoSmithKline LLC, priority 2008, dated 2013)
# Where a name gives a salt, the structure may show the parent alone.
# Tested on: Interferon-α
# Assay: Induction of Interferon-α using cryopreserved human PBMCs
# Assay type: cell-based
# Settings: PBMC, 24 h incubation, normalised to 1 uM resiquimod, read-out: mean pEC50 for induction of IFN-α (converted)
# Method: Assay for the Induction of Interferon-α Using Cryopreserved Human Peripheral Blood Mononuclear Cells (PBMCs)
# Compounds were dissolved in DMSO. Serial 2-fold dilutions with DMSO were prepared and 0.25 μl dispensed into 384-well clear Greiner polypropylene plates.
# Blood samples of up to 200 ml were obtained from healthy human donors. Whole blood in 25 ml volumes was overlaid onto 15 ml Ficoll gradients in Leucosep tubes, and centrifuged at 1000 g for 20 min. Cells in the band at the plasma/histopaque interface were carefully removed and washed twice with PBS (centrifuged at 400 g for 5 min to harvest). The final pellet was resuspended in freezing medium (90% Heat-inactivated serum, 10% DMSO) to a cell concentration of 4×10^7 cells/ml. The resuspended cells were then cryopreserved (frozen) using a rate controlled freezer, and stored at −140° C. for up to 4 months.
# Immediately prior to assay, vials of cryopreserved (frozen) PBMCs were thawed rapidly in a water bath at 37° C. A 1:10 dilution of the cells in trypan blue was prepared and counted. The PBMCs were then diluted in growth media [RPMI 1640 containing 10% fetal calf serum (invitrogen), Penicillin+[…] (Gibco cat. #25030-024, 1:50), L-Glutamine 2 mM, and 1000 units/ml recombinant human IFN-gamma (Preprotech catalogue #300-02)] to a density of 1×10^6 cells/ml, and 50 ul/well dispensed to 384-well clear Greiner polypropylene plates containing 0.25 μl DMSO or test compound in 0.25 μl DMSO. […] Plates were incubated for 24 h at 37° C. in 5% CO2.
# A multi-isoform immunoassay was used to quantify IFN-α in PBMC supernatants. Rabbit polyclonal antibody against human IFN-α (catalogue number 31101, Stratech Scientific) was diluted 1:10000 in assay buffer (RPMI 1640 containing 10% fetal calf serum, Invitrogen) and 20 μl was added to each well of an MSD (Meso-Scale Discovery) single small-spot 384-well GAR (goat anti-rabbit antibody coated) plate. The plate was incubated for 1 hour at room temperature with vigorous shaking. Following three washes with PBS, 20 μl of cell supernatant were added to each well of the plate. The plate was then incubated for 1 hour at room temperature with vigorous shaking. A pair of monoclonal antibodies to IFN-α (catalogue numbers 21100 and 21112, Stratech Scientific) were labelled with sulfo-TAG (MSD), diluted 1:1000 in assay buffer and 20 μl added to each well of the plate. The plate was further incubated for 1 hour at room temperature with vigorous shaking. Following three washes with PBS, 30 μl of x2 T buffer (MSD) was added to each well and the plate was read on an MSD Sector 6000 plate reader.
# Data were normalised to internal plate controls of 1 uM resiquimod (n=16) and DMSO (n=16). pEC50 values were derived by 4-parameter curve fit with IRLS in ActivityBase, from 11-point, two-fold serial dilution of test compounds.
row,SMILES,EC50 [nM]
1,"CCCCOc1nc(N)c2[nH]c(=O)n(CCCC3CCCN(C4CCCC4)C3)c2n1 (centres unmarked) [Example 50, 6-Amino-2-(butyloxy)-9-[3-(1-cyclopentyl-3-piperidinyl)propyl]-7,9-dihydro-8H-purin-8-one]",< 1580
2,"CCCCOc1nc(N)c2[nH]c(=O)n(CCCC3CCCN(CC4CCCC4)C3)c2n1 (centres unmarked) [Example 51, 6-Amino-2-(butyloxy)-9-{3-[1-(cyclopentylmethyl)-3-piperidinyl]propyl}-7,9-dihydro-8H-purin-8-one hydrochloride]",< 1580
3,"CCCCOc1nc(N)c2[nH]c(=O)n(CCCC3CCCN(CCC4CCCCC4)C3)c2n1 (centres unmarked) [Example 52, 6-Amino-2-(butyloxy)-9-{3-[1-(2-cyclohexylethyl)-3-piperidinyl]propyl}-7,9-dihydro-8H-purin-8-one]",< 1580
4,"CCC[C@H](C)Oc1nc(N)c2[nH]c(=O)n(CCCC3CCCNC3)c2n1 (stereo partly drawn) [Example 53, 6-Amino-2-{[(1S)-1-methylbutyl]oxy}-9-[3-(3-piperidinyl)propyl]-7,9-dihydro-8H-purin-8-one]",< 1580
5,"CCC[C@H](C)Oc1nc(N)c2[nH]c(=O)n(CCCC3CCCN(CC)C3)c2n1 (stereo partly drawn) [Example 54, 6-Amino-9-[3-(1-ethyl-3-piperidinyl)propyl]-2-{[(1S)-1-methylbutyl]oxy}-7,9-dihydro-8H-purin-8-one]",< 1580
6,"CCCCOc1nc(N)c2[nH]c(=O)n(CCCCC3CCCNC3)c2n1 (centres unmarked) [Example 55, 6-amino-2-(butyloxy)-9-[4-(3-piperidinyl)butyl]-7,9-dihydro-8H-purin-8-one]",< 1580
7,"CCCCOc1nc(N)c2[nH]c(=O)n(CCCCC3CCCN(CC)C3)c2n1 (centres unmarked) [Example 56, 6-Amino-2-(butyloxy)-9-[4-(1-ethyl-3-piperidinyl)butyl]-7,9-dihydro-8H-purin-8-one]",< 1580
8,"CCCCOc1nc(N)c2[nH]c(=O)n(CCCCC3CCCN(CCC)C3)c2n1 (centres unmarked) [Example 57, 6-Amino-2-(butyloxy)-9-[4-(1-propyl-3-piperidinyl)butyl]-7,9-dihydro-8H-purin-8-one]",< 1580
9,"CCCCOc1nc(N)c2[nH]c(=O)n(CCCCC3CCCN(C(C)C)C3)c2n1 (centres unmarked) [Example 58, 6-Amino-2-(butyloxy)-9-{4-[1-(1-methylethyl)-3-piperidinyl]butyl}-7,9-dihydro-8H-purin-8-one]",< 1580
10,"CCCCOc1nc(N)c2[nH]c(=O)n(CCCCC3CCCN(CCCC)C3)c2n1 (centres unmarked) [Example 59, 6-Amino-2-(butyloxy)-9-[4-(1-butyl-3-piperidinyl)butyl]-7,9-dihydro-8H-purin-8-one]",< 1580
11,"CCCCOc1nc(N)c2[nH]c(=O)n(CCCCC3CCCN(CC(C)C)C3)c2n1 (centres unmarked) [Example 60, 6-Amino-2-(butyloxy)-9-{4-[1-(2-methylpropyl)-3-piperidinyl]butyl}-7,9-dihydro-8H-purin-8-one hydrochloride]",< 1580
12,"CCCCOc1nc(N)c2[nH]c(=O)n(CCCCC3CCCN(CCC(C)C)C3)c2n1 (centres unmarked) [Example 61, 6-Amino-2-(butyloxy)-9-{4-[1-(3-methylbutyl)-3-piperidinyl]butyl}-7,9-dihydro-8H-purin-8-one]",< 1580
13,"CCCCOc1nc(N)c2[nH]c(=O)n(CCCCC3CCCN(C4CCCC4)C3)c2n1 (centres unmarked) [Example 62, 6-Amino-2-(butyloxy)-9-[4-(1-cyclopentyl-3-piperidinyl)butyl]-7,9-dihydro-8H-purin-8-one]",< 1580
14,"CCCCOc1nc(N)c2[nH]c(=O)n(CCCCC3CCCN(CC4CCCC4)C3)c2n1 (centres unmarked) [Example 63, 6-Amino-2-(butyloxy)-9-{4-[1-(cyclopentylmethyl)-3-piperidinyl]butyl}-7,9-dihydro-8H-burin-8-one hydrochloride]",< 1580
15,"CCCCOc1nc(N)c2[nH]c(=O)n(CCCCC3CCCN(CCC4CCCCC4)C3)c2n1 (centres unmarked) [Example 64, 6-Amino-2-(butyloxy)-9-{4-[1-(2-cyclohexylethyl)-3-piperidinyl]butyl}-7,9-dihydro-8H-burin-8-one]",< 1580
16,"CCC[C@H](C)Oc1nc(N)c2[nH]c(=O)n(CCCCC3CCCNC3)c2n1 (stereo partly drawn) [Example 65, 6-Amino-2-{[(1S)-1-methylbutyl]oxy}-9-[4-(3-piperidinyl)butyl]-7,9-dihydro-8H-purin-8-one]",< 1580
17,"CCCCOc1nc(N)c2[nH]c(=O)n(CCCCCC3CCCNC3)c2n1 (centres unmarked) [Example 67, 6-Amino-2-(butyloxy)-9-[5-(3-piperidinyl)pentyl]-7,9-dihydro-8H-purin-8-one]",< 1580
18,"CCCCOc1nc(N)c2[nH]c(=O)n(CCCCCC3CCCN(CC)C3)c2n1 (centres unmarked) [Example 68, 6-Amino-2-(butyloxy)-9-[5-(1-ethyl-3-piperidinyl)pentyl]-7,9-dihydro-8H-purin-8-one]",< 1580
19,"CCCCOc1nc(N)c2[nH]c(=O)n(CC3CCN(CCC)CC3)c2n1 [Example 70, 6-Amino-2-(butyloxy)-9-[(1-propyl-4-piperidinyl)methyl]-7,9-dihydro-8H-purin-8-one]",< 1580
20,"CCCCOc1nc(N)c2[nH]c(=O)n(CC3CCN(C(C)C)CC3)c2n1 [Example 71, 6-Amino-2-(butyloxy)-9-{[1-(1-methylethyl)-4-piperidinyl]methyl}-7,9-dihydro-8H-purin-8-one]",< 1580
21,"CCCCOc1nc(N)c2[nH]c(=O)n(CC3CCN(CCCC)CC3)c2n1 [Example 72, 6-Amino-2-(butyloxy)-9-[(1-butyl-4-piperidinyl)methyl]-7,9-dihydro-8H-purin-8-one]",< 1580
22,"CCCCOc1nc(N)c2[nH]c(=O)n(CC3CCN(CC(C)C)CC3)c2n1 [Example 73, 6-Amino-2-(butyloxy)-9-{[1-(2-methylpropyl)-4-piperidinyl]methyl}-7,9-dihydro-8H-purin-8-one]",< 1580
23,"CCCCOc1nc(N)c2[nH]c(=O)n(CC3CCN(CCC(C)C)CC3)c2n1 [Example 74, 6-Amino-2-(butyloxy)-9-{[1-(3-methylbutyl)-4-piperidinyl]methyl}-7,9-dihydro-8H-purin-8-one]",< 1580
24,"CCCCOc1nc(N)c2[nH]c(=O)n(CC3CCN(C4CCCC4)CC3)c2n1 [Example 75, 6-Amino-2-(butyloxy)-9-[(1-cyclopentyl-4-piperidinyl)methyl]-7,9-dihydro-8H-purin-8-one]",< 1580
25,"CCCCOc1nc(N)c2[nH]c(=O)n(CC3CCN(C4CCCCC4)CC3)c2n1 [Example 76, 6-Amino-2-(butyloxy)-9-[(1-cyclohexyl-4-piperidinyl)methyl]-7,9-dihydro-8H-purin-8-one]",< 1580
26,"CCC[C@H](C)Oc1nc(N)c2[nH]c(=O)n(CC3CCNCC3)c2n1 [Example 77, 6-Amino-2-{[(1S)-1-Methylbutyl]oxy}-9-(4-piperidinylmethyl)-7,9-dihydro-8H-purin-8-one]",< 1580
27,"CCC[C@H](C)Oc1nc(N)c2[nH]c(=O)n(CC3CCN(CC)CC3)c2n1 [Example 78, 6-Amino-9-[(1-ethyl-4-piperidinyl)methyl]-2-{[(1S)-1-methylbutyl]oxy}-7,9-dihydro-8H-purin-8-one]",< 1580
28,"CCC[C@H](C)Oc1nc(N)c2[nH]c(=O)n(CC3CCN(C(C)C)CC3)c2n1 [Example 79, 6-Amino-2-{[(1S)-1-methylbutyl]oxy}-9-{[1-(1-methylethyl)-4-piperidinyl]methyl}-7,9-dihydro-8H-purin-8-one]",< 1580
29,"CCCCOc1nc(N)c2[nH]c(=O)n(CCC3CCN(CCC)CC3)c2n1 [Example 80, 6-Amino-2-(butyloxy)-9-[2-(1-propyl-4-piperidinyl)ethyl]-7,9-dihydro-8H-purin-8-one]",< 1580
